≈ marks a conversion by molar mass, not a printed value. Read-outs that look alike come from different tables or passages of the source.
Key:
[1] = test system: E. multilocularis metacestodes; assay: PGI-assay: drug-induced damage on in vitro cultured metacestodes (Pathogen Box screening cascade and EC50); format: cell-based, Echinococcus multilocularis; conditions: for activity in the present in vitro screen (threshold 20% relative activity compared to Tx-100) / activity in the screen at 10 μM (confirmed in triplicates, >20% relative PGI release): 10 μM; for cytotoxicity at 10 µM / PGI release, % of the Tx-100 control, 5d / PGI release, % of the Tx-100 control, 12d: singlets, 10 µM; for activity in the screen at 10 μM (confirmed in triplicates, >20% relative PGI release): 5 and 12 days
[2] = test system: E. granulosus; parameters: method as in Kammerer and Perez-Esandi, 1975; Miyaji et al., 1993; conditions: ref Kammerer and Perez-Esandi, 1975; Miyaji et al., 1993; cited from earlier work
[3] = test system: human foreskin fibroblasts (HFF); parameters: method as in Stadelmann et al., 2016; conditions: ref Stadelmann et al., 2016; cited from earlier work
[4] = test system: E. granulosus protoscoleces; parameters: method as in Bonilla et al., 2008; conditions: after 48 h; ref Bonilla et al., 2008; cited from earlier work
[5] = test system: mitochondrial respiration of E. multilocularis GL cells; assay: Mitochondrial respiration (OCR) in permeabilized GL cells by Seahorse XFp analyzer; format: cell-based, Echinococcus multilocularis; conditions: 1 μM
[6] = BPQ levels in orally treated mice (literature); format: in vivo; conditions: extrapolation to 100 mg/kg
[7] = test system: E. multilocularis metacestodes; assay: Transmission electron microscopy of BPQ-treated metacestodes; format: cell-based, Echinococcus multilocularis
Experimental: The preparation of the samples for transmission electron microscopy (TEM) was done according to the protocol of [Hemphill and Croft (1997)]. In short, E. multilocularis metacestodes were distributed to 48-well-plates and incubated with DMSO or BPQ (30–0.04 μM) as described above. After an incubation period of 5 days, metacestodes were fixed in 2% glutaraldehyde in 0.1 M sodium cacodylate buffer; pH = 7.3 for 1 h. Next, the samples were stained for 2 h in a 2% osmium tetroxide solution cacodylate buffer, and subsequently pre-stained in a saturated uranyl acetate solution for 30 min. After washing the samples with water, they were dehydrated stepwise by washing in increasing concentrations of ethanol (30%, 50%, 70%, 90%, and three times 100%). The samples were then embedded in Epon 812 resin with three subsequent resin changes during 2 days and incubated at 65 °C overnight for polymerization. Sections for TEM (80 nm) were cut using an ultramicrotome (Reichert and Jung, Vienna, Austria), and were loaded onto formvar-carbon coated nickel grids (Plano GmbH, Marburg, Germany). The specimens were finally stained with uranyl acetate and lead citrate, and were viewed on a CM12 transmission electron microscope (Philips Electron Optics, Eindhoven, Netherlands) that operates at 80 kV.

[8] = test system: E. multilocularis metacestodes; assay: Vesicle viability assay by Alamar Blue (MIC); format: cell-based, Echinococcus multilocularis; conditions: Echinococcus multilocularis, 288 h; Alamar Blue vesicle viability assay, 12 days of incubation; read-out: E. multilocularis MIC
Experimental: The setup was the same as for PGI-assay EC50 calculations and it was performed in triplicates. […] Data was used to calculate the minimal inhibitory concentrations (MICs) of these compounds on metacestodes.

[9] = test system: E. multilocularis metacestodes; assay: BPQ treatment of E. multilocularis infected mice; format: in vivo, Balb/c mice; conditions: for parasite burden compared to the control: p.o. in corn oil, 5 days per week, 4 weeks, BPQ 100 mg/kg, ABZ 200 mg/kg
Experimental: Balb/c mice, 6 weeks old, were purchased from Charles River Laboratories (Sulzheim, Germany) and used for in vivo experiments when they were 8 weeks old and weighted approximately 20 g. The mice were housed in a type 3 cage containing enrichment in the form of a cardboard house and paper and woodchip bedding with a maximum of seven mice per cage. […] Food and water was provided ad libitum. Experimentally infected mice were treated with BPQ to elucidate the efficacy of the drug in vivo. To infect mice, in vitro grown E. multilocularis metacestodes (isolate […]) were washed in PBS, were mechanically destroyed by pipetting and the resulting suspension was centrifuged for 5 min at 500 g. The parasite tissue was then taken up in an equal volume of PBS. Each mouse was subsequently infected intraperitoneally (i.p.) with 200 μl of this suspension. […] infected mice were randomly distributed into 3 treatment groups (8 animals per group) with 4 animals per cage. […] Treatments of mice started 2 weeks post-infection and lasted for 4 weeks, with consecutive treatment of mice for 5 days per week, followed by an interruption of treatment for 2 days for recovery. All treatments were administered by oral gavage in a volume of 50 μl, with ABZ and BPQ being suspended in corn oil. After four weeks, all mice were anesthetized with isoflurane and subsequently euthanized by CO2. The parasitic tissue from each mouse was completely resected and weighed. The mass of the resected parasitic tissue was used for statistical analyses of the experiment. […] The significance level was set to p < 0.05. Figures were prepared in R and Adobe Illustrator 2015.1.0.

[10] = test system: human foreskin fibroblasts (HFF); assay: Cytotoxicity by Alamar Blue assay in human foreskin fibroblasts; conditions: Homo sapiens, Fibroblast, 120 h
[11] = test system: Reuber rat hepatoma (RH) cells; assay: Cytotoxicity by Alamar Blue assay in rat hepatoma cells; format: cell-based; conditions: 120 h, Alamar Blue, 5 days
[12] = test system: E. multilocularis metacestodes; assay: PGI-assay under anaerobic/aerobic conditions; conditions: oxygen-free atmosphere, 5 days
[13] = parameters: method as in Smith et al., 2018; conditions: mice, oral, single dose of 6 mg/kg; ref Smith et al., 2018; cited from earlier work
[14] = Echinococcus multilocularis, 120 h, 5 days of incubation, read-out: PGI release, % of the Tx-100 control, 5d
[15] = Echinococcus multilocularis, 288 h, 12 days of incubation, read-out: PGI release, % of the Tx-100 control, 12d
[16] = 1 µM, triplicates, 5 days of incubation
[17] = 1 µM, triplicates, 12 days of incubation

N=C(N)c1ccc(OCCCCCOc2ccc(C(=N)N)cc2)cc1 [MMV000062, Pentamidine, reference compound]
activity in the present in vitro screen (threshold 20% relative activity compared to Tx-100) [1]: inactive | cytotoxicity at 10 µM [1, 14]: -1% | cytotoxicity at 10 µM [1, 15]: -1.06% | effect in vivo against E. granulosus [2]: did not show any effects

NCCC[C@](N)(C(=O)O)C(F)F [MMV001625, alpha-Difluoromethylornithine, reference compound]
activity in the present in vitro screen (threshold 20% relative activity compared to Tx-100) [1]: inactive | PGI release, % of the Tx-100 control, 5d ([1]; 5 days of incubation): -0.43% | PGI release, % of the Tx-100 control, 12d ([1]; 12 days of incubation): -0.93% | effect in vivo against E. granulosus [2]: did not show any effects

Cc1ccc(C(=O)Nc2ccc(S(=O)(=O)O)c3cc(S(=O)(=O)O)cc(S(=O)(=O)O)c23)cc1NC(=O)c1cccc(NC(=O)Nc2cccc(C(=O)Nc3cc(C(=O)Nc4ccc(S(=O)(=O)O)c5cc(S(=O)(=O)O)cc(S(=O)(=O)O)c45)ccc3C)c2)c1 [MMV637953, Suramin, reference compound]
activity in the present in vitro screen (threshold 20% relative activity compared to Tx-100) [1]: inactive | cytotoxicity at 10 µM [1, 14]: 0.85% | cytotoxicity at 10 µM [1, 15]: 0.51% | effect in vivo against E. granulosus [2]: did not show any effects

O=C(Nc1cccc(C(F)(F)F)c1)c1cc(Cl)ccc1O [MMV665807]
toxicity against HFF [3]: did not exhibit any specific toxicity

CC(=O)OCC1OC([S-])C(OC(C)=O)C(OC(C)=O)C1OC(C)=O.CCP(CC)CC.[Au+] (centres unmarked) [MMV688978, Auranofin, reference compound]
activity against metacestodes at 1 μM ([1]; triplicates): not at 1 μM | PGI release, % of Tx-100 control, average, 5d [1, 16]: -2.65% | PGI release, % of Tx-100 control, average, 12d [1, 17]: -1.30% | activity in the screen at 10 μM (confirmed in triplicates, >20% relative PGI release) [1]: active | PGI release, % of the Tx-100 control, 5d ([1]; 5 days of incubation): 84.86% | PGI release, % of the Tx-100 control, 12d ([1]; 12 days of incubation): 96.09% | PGI release, % of Tx-100 control, average, 5d ([1]; confirmatory screening at 10 µM in triplicates, 5 days of incubation, values as % of Tx-100 control): 47.33% | PGI release, % of Tx-100 control, average, 12d ([1]; confirmatory screening at 10 µM in triplicates, 12 days of incubation, values as % of Tx-100 control): 61.40% | concentration killing protoscoleces [4]: 2.5 µM

CC(C)(C)[C@H]1CC[C@H](CC2=C(O)C(=O)c3ccccc3C2=O)CC1 [MMV689480, Buparvaquone]
oxygen consumption rate (OCR) after addition of drug ([5]; permeabilized GL cells fed with succinate): rapidly decreased | inhibition of mitochondrial electron transport chain complex ([5]; OCR restored by ascorbate/TMPD, not by succinate or glycerol 3-phosphate): selectively inhibits complex III | activity against metacestodes at 1 μM ([1]; triplicates): distinct in vitro activities | PGI release, % of Tx-100 control, average, 5d [1, 16]: 1.05% | PGI release, % of Tx-100 control, average, 12d [1, 17]: 52.04% | activity in the screen at 10 μM (confirmed in triplicates, >20% relative PGI release) [1]: active | cytotoxicity at 10 µM [1, 14]: 27.4% | EC50 ([1]; Echinococcus multilocularis, 120 h, PGI-assay, 5 days in vitro, read-out: E. multilocularis EC50): 2.87 µM | PGI release, % of Tx-100 control at 10 µM ([1]; Echinococcus multilocularis, 120 h, confirmatory screening at 10 µM in triplicates, 5 days of incubation, values as % of Tx-100 control, read-out: PGI release, % of Tx-100 control, average, 5d): 41.2% | cytotoxicity at 10 µM [1, 15]: 38.6% | PGI release, % of Tx-100 control at 10 µM ([1]; Echinococcus multilocularis, 288 h, confirmatory screening at 10 µM in triplicates, 12 days of incubation, values as % of Tx-100 control, read-out: PGI release, % of Tx-100 control, average, 12d): 63.7% | IC50 ([1]; Echinococcus multilocularis, read-out: IC50 against in vitro cultured E. multilocularis metacestodes): 2.87 µM | toxicity against E. multilocularis metacestodes compared with host cells (HFF, RH) ([1]; comparison of EC50 with IC50 on mammalian cells): specific toxicity | Cmax extrapolated (assuming linear correlation) [6]: 20000 nM | ultrastructural alterations (TEM) at 1 μM ([7]; 1 μM, 5 days): membrane stacks were observed, and the GL started to separate from the LL | ultrastructural alterations (TEM) at 3 μM ([7]; 3 μM, 5 days): metacestode integrity was seriously impaired | lowest concentration with ultrastructural damage (TEM) ([7]; 5 days of BPQ): 0.3 µM | MIC [8]: 0.56 µM (≈ 0.183 µg/mL) | parasite burden compared to the control [9]: failed to reduce the parasite burden | parasite burden compared to the control ([9]; listed as BPQ): no significant difference | adverse effects due to treatment ([9]; whole course of treatment, 4 weeks p.o.): None of the mice showed signs of adverse effects | IC50 ([10]; read-out: HFF confluent IC50): 48.6 µM | IC50 ([10]; read-out: HFF preconfluent IC50): 5.99 µM | IC50 ([11]; confluent cells, read-out: RH confluent IC50): 17.4 µM | IC50 ([11]; preconfluent cells, read-out: RH preconfluent IC50): 8.47 µM | damage on metacestodes (PGI-assay), anaerobic, 10 μM or lower ([12]; 10 μM or lower): did not induce damage | damage on metacestodes (PGI-assay), anaerobic, 30 μM ([12]; 30 μM): active | Cmax [13]: 1200 nM
